Laboratory results as given in PMC6317155, “Identification of Small Peptides that Inhibit NADPH Oxidase (Nox2) Activation” (Antioxidants, 2018).
One block for each sequence: values may come before it.

Columns and labels:
[1] = biological target: T1, aiPLA2 activity of recombinant human Prdx6 (Homo sapiens, UniProt P30041); test: aiPLA2 (PLA2) activity of recombinant human Prdx6 in vitro, 3H-DPPC liposome substrate; type: biochemical; conditions: for Activity (aiPLA2 of recombinant hPrdx6), human-derived peptides: deletions from 16-aa human-derived SP-A peptide, no-peptide control 92.0; for Activity (aiPLA2 of recombinant hPrdx6), human-derived peptides / Activity (aiPLA2 of recombinant hPrdx6), deletion from C-term / Activity (aiPLA2 of recombinant hPrdx6), deletion from N-term: one assay done in duplicate; for Activity (aiPLA2 of recombinant hPrdx6), deletion from C-term: peptides deleted from C-terminus of 16-aa rat-derived SP-A peptide, and scrambled peptide; for Activity (aiPLA2 of recombinant hPrdx6), deletion from C-term / Activity (aiPLA2 of recombinant hPrdx6), deletion from N-term: no-peptide control 94.8; for Activity (aiPLA2 of recombinant hPrdx6), deletion from N-term: peptides deleted from N-terminus of 16-aa rat-derived SP-A peptide, 3H-DPPC liposomes, 60 min
T1 sequence (P30041 1-224): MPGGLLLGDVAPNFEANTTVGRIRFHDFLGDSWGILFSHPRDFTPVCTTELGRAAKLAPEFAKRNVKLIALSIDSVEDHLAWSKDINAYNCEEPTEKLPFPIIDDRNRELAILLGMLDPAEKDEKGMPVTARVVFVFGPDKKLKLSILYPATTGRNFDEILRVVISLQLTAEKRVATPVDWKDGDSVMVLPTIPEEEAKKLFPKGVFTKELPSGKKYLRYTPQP
Protocol: (§1) The PLA2 activity of Prdx6 was measured as described previously. The substrate was dipalmitoylphosphatidylcholine (DPPC) with ^3H-9,10-palmitate in the sn-2 position of DPPC incorporated into lung surfactant-like liposomes as described above; substrate was incubated with enzyme for 60 min and activity was calculated from the liberation of ^3H-palmitate as measured by scintillation counting.
The effect of the PIP peptides on the aiPLA2 activity of human recombinant Prdx6 was determined by in vitro assay; the effective concentration of inhibitor was corrected for purity of the PIP preparation. Saturating concentrations of all three peptides (PIP-1, PIP-2, PIP-3) inhibited aiPLA2 activity by ~70% (Figure 2). The basis for the remaining 30% of activity that was not inhibited is unclear.

[2] = biological target: T1, aiPLA2 activity of recombinant human Prdx6; test: Chemical stability of dry powder on laboratory shelf, read out as inhibition of aiPLA2 activity; type: physicochemical; conditions: room temperature, nine months, data not shown
Text: These peptides have a molecular mass of 1156–1178 with a predicted isoelectric point in the slightly basic range. Each of the three peptides contains four hydrophobic amino acid residues, with two of those on the same surface, and one negatively charged hydrophilic aa. The PIP-2 sequence has three while PIPs-1 and -3 have only two positively charged aa. PIP-1 is slightly more hydrophobic than the other two peptides but, in our experience, all three peptides readily dissolve in aqueous solution. […] No antigenic determinants were identified in these peptides as determined by the free on-line program provided by the Immunomedicine Group of the Universidad Complutense (Madrid, Spain). The chemical stability of PIP-2 was tested by placing the dry powder on the laboratory shelf at room temperature; its inhibition of the aiPLA2 activity of recombinant human Prdx6 was unchanged when measured after nine months of shelf storage indicating good stability of the peptide as a dry powder (data not shown); stability of the other peptides was not tested.

[3] = biological target: T2, aiPLA2 activity of lung homogenate (Mus musculus, UniProt O08709); test: aiPLA2 activity of homogenate of isolated mouse lungs perfused with PIP-2; conditions: inferred from lack of effect without liposomal carrier in lungs
T2 construct: from tissue; host or cells: mouse (C57Bl/6) lung homogenate
T2 sequence (O08709 1-224): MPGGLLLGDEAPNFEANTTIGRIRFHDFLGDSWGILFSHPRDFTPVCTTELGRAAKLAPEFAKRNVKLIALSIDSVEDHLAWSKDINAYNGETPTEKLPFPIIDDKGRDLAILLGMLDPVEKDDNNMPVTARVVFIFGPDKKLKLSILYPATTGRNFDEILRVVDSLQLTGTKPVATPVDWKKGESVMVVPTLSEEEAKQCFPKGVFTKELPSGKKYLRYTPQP
Protocol: as §1
To confirm the requirement for liposomes as a delivery vehicle, lungs were perfused for 15 min with PIP-2 incorporated or not into liposomes, then perfused with fresh medium to clear extracellular PIP-2, and then homogenized and assayed for aiPLA2 activity. PIP-2 administered without liposomes had no effect on aiPLA2 activity of the lung homogenate while PIP-2 in liposomes inhibited activity by ~80% (Table 5).

[4] = biological target: T3, lung aiPLA2 activity (Mus musculus, UniProt O08709); test: Lung aiPLA2 activity after a single IT or IV dose in mice in vivo; conditions: single dose in liposomes, estimated
T3 construct: from tissue; host or cells: mouse (C57Bl/6) lung homogenate
T3 sequence (O08709 1-224): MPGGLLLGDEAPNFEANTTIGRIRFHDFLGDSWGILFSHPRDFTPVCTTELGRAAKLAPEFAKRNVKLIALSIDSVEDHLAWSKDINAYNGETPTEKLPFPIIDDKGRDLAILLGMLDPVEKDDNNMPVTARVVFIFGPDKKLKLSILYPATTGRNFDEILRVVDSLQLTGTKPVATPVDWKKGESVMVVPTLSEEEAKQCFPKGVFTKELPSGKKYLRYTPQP
Protocol: For administration to mice, peptides were incorporated into liposomes that were prepared as previously described. Liposome composition was dipalmitoylphosphatidylcholine (DPPC): egg phosphatidylcholine: phosphatidylglycerol: cholesterol in the molar ratio 50:25:10:15. To measure the in vivo effect of the peptides, mice were injected with PIP-2 by either the intratracheal (IT) or the intravenous (IV) route and were sacrificed at intervals; lungs were removed from mice and homogenized for measurement of aiPLA2 activity.
as §1
To determine the effect and duration of a single dose of PIP-2 on aiPLA2 activity of mouse lungs in vivo, mice were injected with PIP-2 in liposomes by either the intratracheal (IT) or the intravenous (IV) route; individual lungs were removed at intervals, homogenized, and assayed for aiPLA2 activity. […]
Figure 4 Persistence and stability of PIP-2 in vivo. […] Lungs were harvested at intervals between 4 and 72 h after the PIP-2 administration, homogenized, and analyzed for aiPLA2 activity. […]

[5] = biological target: T4, PLA2 activity of Prdx6 (aiPLA2) (Mus musculus, UniProt O08709); test: PLA2 activity of lung homogenate at pH 4 without Ca2+ (aiPLA2), PIP-2 added to the assay; type: biochemical; conditions: wild type mouse lung homogenate, no Ca2+; no inhibitor 8.7 ± 0.16; mean ± range, n = 2
T4 construct: from tissue; host or cells: mouse (C57Bl/6) lung homogenate
T4 sequence (O08709 2-224): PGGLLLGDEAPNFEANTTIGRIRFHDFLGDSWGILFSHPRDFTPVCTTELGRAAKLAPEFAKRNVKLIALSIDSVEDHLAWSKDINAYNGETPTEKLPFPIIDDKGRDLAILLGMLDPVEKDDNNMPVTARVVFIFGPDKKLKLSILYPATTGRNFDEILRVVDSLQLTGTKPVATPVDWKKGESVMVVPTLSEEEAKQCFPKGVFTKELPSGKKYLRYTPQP
Protocol: as §1
(§2) Lung cells, like those of other organs, have multiple PLA2 enzymes. We evaluated the specificity of PIP-2 for inhibition of Prdx6 by measuring aiPLA2 activity in the lung homogenate of wild type and D140A-Prdx6 mutant mice. […] Measurement of PLA2 activity at pH 4 in the absence of Ca^2+ is relatively specific for the PLA2 activity of Prdx6 (aiPLA2). This activity was inhibited by 91% following addition of PIP-2 to the assay of the lung homogenate (Table 6). Although Prdx6 has relatively little PLA2 activity when measured at pH 7, other lung PLA2 enzymes, some of which are Ca^2+-dependent for activity, show activity at neutral pH; this activity was not affected by mutation of D140 in Prdx6 (Table 6). Unlike the effect of PIP-2 on aiPLA2 activity at pH 4, the addition of PIP-2 had no effect on activity of the lung PLA2 enzymes that are active at pH 7. Thus, aiPLA2 appears to be the only PLA2 enzyme, at least in the lung, that is inhibited by PIP-2.

[6] = biological target: T5, PLA2 activity of Prdx6 (aiPLA2) (Mus musculus, UniProt O08709, D140A); test: as above; type: biochemical; conditions: D140A-Prdx6 knock-in mouse lung homogenate, no Ca2+; no inhibitor 0.2 ± 0.03; mean ± range, n = 2
T5 construct: from tissue; host or cells: mouse (C57Bl/6) lung homogenate
T5 sequence (O08709 2-224 D140A): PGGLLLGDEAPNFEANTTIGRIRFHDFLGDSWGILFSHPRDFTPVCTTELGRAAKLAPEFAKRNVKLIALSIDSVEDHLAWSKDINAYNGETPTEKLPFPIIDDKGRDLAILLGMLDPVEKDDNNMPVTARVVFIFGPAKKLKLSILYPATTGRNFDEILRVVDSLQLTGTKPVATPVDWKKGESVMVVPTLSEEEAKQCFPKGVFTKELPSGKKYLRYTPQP
Protocol: as §1, §2

[7] = test system: lung PLA2 enzymes that are active at pH 7; test: PLA2 activity of lung homogenate at pH 7 with Ca2+ (other lung PLA2 enzymes), PIP-2 added to the assay; type: biochemical, mouse
Protocol: as §1, §2

- Activity (aiPLA2 of recombinant hPrdx6), human-derived peptides [1]: 45.0 nmol/min/mg Prot.
Sequence: DEELQATLHDFRHQIL [16 aa human SP-A-derived peptide]

- Activity (aiPLA2 of recombinant hPrdx6), deletion from C-term [1]: 93.6 nmol/min/mg Prot.
Sequence: DEELQTEL [8-aa C-terminal deletion of rat 16-aa peptide]

- Activity (aiPLA2 of recombinant hPrdx6), deletion from C-term [1]: 102 nmol/min/mg Prot.
Sequence: DEELQTELYEIKHQ [14-aa C-terminal deletion of rat 16-aa peptide]

- Activity (aiPLA2 of recombinant hPrdx6), deletion from C-term [1]: 32.0 nmol/min/mg Prot.
- Activity (aiPLA2 of recombinant hPrdx6), deletion from N-term [1]: 32.0 nmol/min/mg Prot.
Sequence: DEELQTELYEIKHQIL

- Activity (aiPLA2 of recombinant hPrdx6), deletion from N-term [1]: 33.2 nmol/min/mg Prot.
Sequence: ELQTELYEIKHQIL [14-aa N-terminal deletion of rat 16-aa peptide]

- Activity (aiPLA2 of recombinant hPrdx6), deletion from C-term [1]: 89.6 nmol/min/mg Prot.
Sequence: ELYEIKHQI [9-aa peptide lacking the C-terminal Leu]

- Activity (aiPLA2 of recombinant hPrdx6), deletion from N-term [1]: 28.6 nmol/min/mg Prot.
Sequence: ELYEIKHQIL [10-aa N-terminal deletion of rat 16-aa peptide]

- Activity (aiPLA2 of recombinant hPrdx6), deletion from C-term [1]: 93.5 nmol/min/mg Prot.
Sequence: LELDEEITEYQKQLHI [Scrambled peptide, scrambled 16-aa control peptide, reference compound]

Sequence: LHDFRHQIL [PIP-2]
- Activity (aiPLA2 of recombinant hPrdx6), human-derived peptides [1]: 29.9 nmol/min/mg Prot.
- Inhibition of aiPLA2 activity at saturating concentrations of peptide ([1]; recombinant human Prdx6, Figure 2, mean + SEM, n = 3): ~ 70%
- Concentration of peptide for inhibition of aiPLA2 activity by 50% ([1]; recombinant human Prdx6, concentration corrected for purity of the PIP preparation, Figure 2, n = 3): ~ 6.6 µg/mg Prdx6
- Chemical stability: inhibition of aiPLA2 activity after shelf storage [2]: unchanged
- Ability to cross the cell membrane [3]: not able to cross the cell membrane
- Half-time for recovery of lung aiPLA2 activity (decrease of in vivo inhibition) [4]: ~ 50 h
- PLA2 activity, pH 4, WT [5]: 1.6 ± 0.10 nmol/min/mg Prot.
- PLA2 activity, pH 4, D140A-Prdx6 [6]: 0.2 ± 0.06 nmol/min/mg Prot.
- PLA2 activity, pH 7 + Ca2+, D140A-Prdx6 ([7]; D140A-Prdx6 knock-in mouse lung homogenate, no inhibitor 8.3 ± 0.26, mean ± range, n = 2): 8.5 ± 0.10 nmol/min/mg Prot.
- Effect on activity of lung PLA2 enzymes active at pH 7 ([7]; PIP-2 added to assay of lung homogenate): no effect
